Data from patent publication US20250298019A1, “BORRELIA BURGDORFERI PEPTIDOGLYCAN DETECTION METHODS” (VIRGINIA TECH INTELLECTUAL PROPERTIES, INC., priority 2021, published 2025).

Tested on: B. burgdorferi 5A11
Assay: Growth of B. burgdorferi in BSK-II medium with GlcNAc replaced by other N-acetylated sugars
Assay type: cell-based, Borrelia burgdorferi
Settings: FIG. 7; for ability to support growth in the absence of GlcNAc: GlcNAc-free BSK-II supplemented with the sugar, 37° C., 5% CO2

Row | Structure (SMILES) | ability to support growth in the absence of GlcNAc | replication rate and final density compared with GlcNAc (5A11 in BSK-II complete media supplemented with the sugar, three independent cultures)
1 | CC(=O)N[C@H]1C(O)O[C@H](CO)[C@H](O)[C@@H]1O (stereo partly drawn) [GalNAc, N-acetylgalactosamine] | support growth in the absence of GlcNAc | –
2 | CC(=O)N[C@@H]1C(O)O[C@H](CO)[C@@H](O)[C@@H]1O (stereo partly drawn) [ManNAc, N-acetylmannosamine] | support growth in the absence of GlcNAc | replicated at a similar rate and reached a comparable final density to GlcNAc
